{
  "source": "patent US7384625B2",
  "about": "“Method and composition for rejuvenating hair, nails, tissues, cells and organs by ex-vivo or immersive treatment” (Farington Pharmaceuticals, LLC, priority 2001, dated 2008)",
  "key": {"[1]": {"assay": "Tissue diffusion coefficient rejuvenation of ex vivo donor lungs, tested in the recipient patient after transplantation", "conditions": "ex vivo organ flushed once with cooled preservation solution containing 0.01 to 1.0 mM; testing in recipient patient", "method": "The following is an illustration of a methodology that can be used to rejuvenate ex vivo and prior to transplantation to a recipient patient the lungs removed from a donor cadaver aged 21 years or more. […] Individuals' deformability and diffusion characteristics can be characterized by using the standard methodology of determination of the lung diffusing capacity for carbon monoxide (e.g., Chang et al., Chest (1992) 102:139-42). The diffusing capacity is measured in the supine patient using a single breath of carbon monoxide (0.3%) held for ten seconds using a CPI 5000 IV (Gould Instruments, Houston, Tex.), corrected for alveolar volume. A young subject (20 years old) will have approximately a 40% higher diffusion coefficient for carbon monoxide compared to older subjects (60 yrs). The ex vivo organ is flushed once with a cooled preservation solution containing 3-(2-phenyl-2-oxoethyl)-4,5-dimethylthiazolium chloride at a concentration of 0.01 to 1.0 mM."}, "[2]": {"assay": "Tendon rejuvenation: elasticity in a materials testing device before and after ex vivo exposure", "parameters": "species or system hen", "conditions": "FIG. 2", "method": "The distensibility (i.e, elasticity, rigidity, shear, tensile strength, compression, etc.) of hair, nails, tendons, etc. may be determined using widely available commercial devices, such as manufactured by Instron. Alternatively, other test methods known to a practitioner of the art may be employed. The elasticity of the Achilles tendon of a one year old hen was determined in a materials testing device before and after ex vivo exposure to 3-(2-phenyl-2-oxoethyl)-4,5-dimethylthiazolium chloride (1 mM) in a bath for 15 minutes."}, "[3]": {"assay": "Hair deformability: stress vs strain of bending individual hairs before and after treatment", "conditions": "FIG. 1", "source_text": "Methodology for Determination of Stress vs Strain Relationship (Stiffness) The distensibility (i.e, elasticity, rigidity, shear, tensile strength, compression, etc.) of hair, nails, tendons, etc. may be determined using widely available commercial devices, such as manufactured by Instron. Alternatively, other test methods known to a practitioner of the art may be employed. The test assay for determining whether hair has been “rejuvenated” for the present invention is the following. Individual scalp hairs were cemented into the ends of glass capillary tubes such that several centimeters of the shaft protruded from the end. This hair was then trimmed to extend 18 mm from the end of the tube. The unit was then inserted into a micropipette positioner for study. Evaluation consisted of bending the hair by applying a specified force and displacement. Thus, this determination of stress vs strain of bending assessed elasticity, compressibility, and shear of each hair shaft. Each hair served as its own control, with baseline and post-treatment properties assessed and directly compared. A 1 mm thick plate with a 0.5 mm diameter hole drilled through was attached to the surface of an isometric strain gauge. To perform each measurement, the capillary tube was placed over the fenestrated plate and the hair end inserted into the hole in the plate without touching the strain gauge. The hair was then straightened, if necessary, such that its axis formed a 10 degree angle with respect to vertical. Once positioned, the hair was then lowered onto the surface of the strain gauge. The force required to bend each hair a specified distance was determined over a wide range of displacements. From the stress vs strain relationships thus derived, the work to bend each hair under different treatment regimens can be directly compared. For purposes of the present invention, the term “rejuvenated” hair means an improvement of at least 20% in the measured value of the treated hair, toward the values seen in young, undamaged hair (i.e. healthy). […] The stress versus strain relationship was determined as a baseline. […]"}},
  "note": "“Also recorded” adds a separate entry of the source.",
  "data": [
    {"smiles": "Cc1sc[n+](CC(=O)c2ccccc2)c1C.[Cl-]", "note": "[3-(2-phenyl-2-oxoethyl)-4,5-dimethylthiazolium chloride]", "values": [
      {"measurement": "deformability of transplanted lungs", "setting": "[1]", "value": "improved"},
      {"measurement": "diffusional capacity of transplanted lungs", "setting": "[1]", "value": "improved"},
      {"measurement": "distensibility of tendon", "setting": "[2]; 1 mM bath for 15 minutes ex vivo, post-treatment", "value": "improved; also recorded: significantly increased"},
      {"measurement": "strain of treated tendon as percent of the strain of the untreated tendon", "setting": "[2]; 1 mM bath for 15 minutes ex vivo, stress greater than 0.04", "value": "about 50%"},
      {"measurement": "tensile strength of tendon", "setting": "[2]; after treatment", "value": "improved"},
      {"measurement": "distensibility of hair", "setting": "[3]; 1 mM, 15 minutes, after treatment vs baseline", "value": "increased distensibility"},
      {"measurement": "stiffness of hair", "setting": "[3]; after treatment", "value": "decreases the stiffness"},
      {"measurement": "reduction of resulting strain versus before treatment", "setting": "[3]; hair immersed in 1 mM solution for 15 minutes, stress greater than 0.08", "value": "about 50%"}
    ]}
  ]
}
